# ChEMBL document CHEMBL1158892, “Cationic reduction of bastadin-4 to bastadin-5. Preparation of 5-[2h]-bastadin-5 by site-specific isotopic labeling” (J Nat Prod, 2003)
# Molecular target: Ryanodine receptor 1 (Homo sapiens) (UniProt P21817)
# Experiment: Displacement of [3H]ryanodine from RyR1 calcium channel in sarcoplasmic reticulum assessed as calcium mobilization
# Sequence of Ryanodine receptor 1 (Homo sapiens) (P21817 whole entry): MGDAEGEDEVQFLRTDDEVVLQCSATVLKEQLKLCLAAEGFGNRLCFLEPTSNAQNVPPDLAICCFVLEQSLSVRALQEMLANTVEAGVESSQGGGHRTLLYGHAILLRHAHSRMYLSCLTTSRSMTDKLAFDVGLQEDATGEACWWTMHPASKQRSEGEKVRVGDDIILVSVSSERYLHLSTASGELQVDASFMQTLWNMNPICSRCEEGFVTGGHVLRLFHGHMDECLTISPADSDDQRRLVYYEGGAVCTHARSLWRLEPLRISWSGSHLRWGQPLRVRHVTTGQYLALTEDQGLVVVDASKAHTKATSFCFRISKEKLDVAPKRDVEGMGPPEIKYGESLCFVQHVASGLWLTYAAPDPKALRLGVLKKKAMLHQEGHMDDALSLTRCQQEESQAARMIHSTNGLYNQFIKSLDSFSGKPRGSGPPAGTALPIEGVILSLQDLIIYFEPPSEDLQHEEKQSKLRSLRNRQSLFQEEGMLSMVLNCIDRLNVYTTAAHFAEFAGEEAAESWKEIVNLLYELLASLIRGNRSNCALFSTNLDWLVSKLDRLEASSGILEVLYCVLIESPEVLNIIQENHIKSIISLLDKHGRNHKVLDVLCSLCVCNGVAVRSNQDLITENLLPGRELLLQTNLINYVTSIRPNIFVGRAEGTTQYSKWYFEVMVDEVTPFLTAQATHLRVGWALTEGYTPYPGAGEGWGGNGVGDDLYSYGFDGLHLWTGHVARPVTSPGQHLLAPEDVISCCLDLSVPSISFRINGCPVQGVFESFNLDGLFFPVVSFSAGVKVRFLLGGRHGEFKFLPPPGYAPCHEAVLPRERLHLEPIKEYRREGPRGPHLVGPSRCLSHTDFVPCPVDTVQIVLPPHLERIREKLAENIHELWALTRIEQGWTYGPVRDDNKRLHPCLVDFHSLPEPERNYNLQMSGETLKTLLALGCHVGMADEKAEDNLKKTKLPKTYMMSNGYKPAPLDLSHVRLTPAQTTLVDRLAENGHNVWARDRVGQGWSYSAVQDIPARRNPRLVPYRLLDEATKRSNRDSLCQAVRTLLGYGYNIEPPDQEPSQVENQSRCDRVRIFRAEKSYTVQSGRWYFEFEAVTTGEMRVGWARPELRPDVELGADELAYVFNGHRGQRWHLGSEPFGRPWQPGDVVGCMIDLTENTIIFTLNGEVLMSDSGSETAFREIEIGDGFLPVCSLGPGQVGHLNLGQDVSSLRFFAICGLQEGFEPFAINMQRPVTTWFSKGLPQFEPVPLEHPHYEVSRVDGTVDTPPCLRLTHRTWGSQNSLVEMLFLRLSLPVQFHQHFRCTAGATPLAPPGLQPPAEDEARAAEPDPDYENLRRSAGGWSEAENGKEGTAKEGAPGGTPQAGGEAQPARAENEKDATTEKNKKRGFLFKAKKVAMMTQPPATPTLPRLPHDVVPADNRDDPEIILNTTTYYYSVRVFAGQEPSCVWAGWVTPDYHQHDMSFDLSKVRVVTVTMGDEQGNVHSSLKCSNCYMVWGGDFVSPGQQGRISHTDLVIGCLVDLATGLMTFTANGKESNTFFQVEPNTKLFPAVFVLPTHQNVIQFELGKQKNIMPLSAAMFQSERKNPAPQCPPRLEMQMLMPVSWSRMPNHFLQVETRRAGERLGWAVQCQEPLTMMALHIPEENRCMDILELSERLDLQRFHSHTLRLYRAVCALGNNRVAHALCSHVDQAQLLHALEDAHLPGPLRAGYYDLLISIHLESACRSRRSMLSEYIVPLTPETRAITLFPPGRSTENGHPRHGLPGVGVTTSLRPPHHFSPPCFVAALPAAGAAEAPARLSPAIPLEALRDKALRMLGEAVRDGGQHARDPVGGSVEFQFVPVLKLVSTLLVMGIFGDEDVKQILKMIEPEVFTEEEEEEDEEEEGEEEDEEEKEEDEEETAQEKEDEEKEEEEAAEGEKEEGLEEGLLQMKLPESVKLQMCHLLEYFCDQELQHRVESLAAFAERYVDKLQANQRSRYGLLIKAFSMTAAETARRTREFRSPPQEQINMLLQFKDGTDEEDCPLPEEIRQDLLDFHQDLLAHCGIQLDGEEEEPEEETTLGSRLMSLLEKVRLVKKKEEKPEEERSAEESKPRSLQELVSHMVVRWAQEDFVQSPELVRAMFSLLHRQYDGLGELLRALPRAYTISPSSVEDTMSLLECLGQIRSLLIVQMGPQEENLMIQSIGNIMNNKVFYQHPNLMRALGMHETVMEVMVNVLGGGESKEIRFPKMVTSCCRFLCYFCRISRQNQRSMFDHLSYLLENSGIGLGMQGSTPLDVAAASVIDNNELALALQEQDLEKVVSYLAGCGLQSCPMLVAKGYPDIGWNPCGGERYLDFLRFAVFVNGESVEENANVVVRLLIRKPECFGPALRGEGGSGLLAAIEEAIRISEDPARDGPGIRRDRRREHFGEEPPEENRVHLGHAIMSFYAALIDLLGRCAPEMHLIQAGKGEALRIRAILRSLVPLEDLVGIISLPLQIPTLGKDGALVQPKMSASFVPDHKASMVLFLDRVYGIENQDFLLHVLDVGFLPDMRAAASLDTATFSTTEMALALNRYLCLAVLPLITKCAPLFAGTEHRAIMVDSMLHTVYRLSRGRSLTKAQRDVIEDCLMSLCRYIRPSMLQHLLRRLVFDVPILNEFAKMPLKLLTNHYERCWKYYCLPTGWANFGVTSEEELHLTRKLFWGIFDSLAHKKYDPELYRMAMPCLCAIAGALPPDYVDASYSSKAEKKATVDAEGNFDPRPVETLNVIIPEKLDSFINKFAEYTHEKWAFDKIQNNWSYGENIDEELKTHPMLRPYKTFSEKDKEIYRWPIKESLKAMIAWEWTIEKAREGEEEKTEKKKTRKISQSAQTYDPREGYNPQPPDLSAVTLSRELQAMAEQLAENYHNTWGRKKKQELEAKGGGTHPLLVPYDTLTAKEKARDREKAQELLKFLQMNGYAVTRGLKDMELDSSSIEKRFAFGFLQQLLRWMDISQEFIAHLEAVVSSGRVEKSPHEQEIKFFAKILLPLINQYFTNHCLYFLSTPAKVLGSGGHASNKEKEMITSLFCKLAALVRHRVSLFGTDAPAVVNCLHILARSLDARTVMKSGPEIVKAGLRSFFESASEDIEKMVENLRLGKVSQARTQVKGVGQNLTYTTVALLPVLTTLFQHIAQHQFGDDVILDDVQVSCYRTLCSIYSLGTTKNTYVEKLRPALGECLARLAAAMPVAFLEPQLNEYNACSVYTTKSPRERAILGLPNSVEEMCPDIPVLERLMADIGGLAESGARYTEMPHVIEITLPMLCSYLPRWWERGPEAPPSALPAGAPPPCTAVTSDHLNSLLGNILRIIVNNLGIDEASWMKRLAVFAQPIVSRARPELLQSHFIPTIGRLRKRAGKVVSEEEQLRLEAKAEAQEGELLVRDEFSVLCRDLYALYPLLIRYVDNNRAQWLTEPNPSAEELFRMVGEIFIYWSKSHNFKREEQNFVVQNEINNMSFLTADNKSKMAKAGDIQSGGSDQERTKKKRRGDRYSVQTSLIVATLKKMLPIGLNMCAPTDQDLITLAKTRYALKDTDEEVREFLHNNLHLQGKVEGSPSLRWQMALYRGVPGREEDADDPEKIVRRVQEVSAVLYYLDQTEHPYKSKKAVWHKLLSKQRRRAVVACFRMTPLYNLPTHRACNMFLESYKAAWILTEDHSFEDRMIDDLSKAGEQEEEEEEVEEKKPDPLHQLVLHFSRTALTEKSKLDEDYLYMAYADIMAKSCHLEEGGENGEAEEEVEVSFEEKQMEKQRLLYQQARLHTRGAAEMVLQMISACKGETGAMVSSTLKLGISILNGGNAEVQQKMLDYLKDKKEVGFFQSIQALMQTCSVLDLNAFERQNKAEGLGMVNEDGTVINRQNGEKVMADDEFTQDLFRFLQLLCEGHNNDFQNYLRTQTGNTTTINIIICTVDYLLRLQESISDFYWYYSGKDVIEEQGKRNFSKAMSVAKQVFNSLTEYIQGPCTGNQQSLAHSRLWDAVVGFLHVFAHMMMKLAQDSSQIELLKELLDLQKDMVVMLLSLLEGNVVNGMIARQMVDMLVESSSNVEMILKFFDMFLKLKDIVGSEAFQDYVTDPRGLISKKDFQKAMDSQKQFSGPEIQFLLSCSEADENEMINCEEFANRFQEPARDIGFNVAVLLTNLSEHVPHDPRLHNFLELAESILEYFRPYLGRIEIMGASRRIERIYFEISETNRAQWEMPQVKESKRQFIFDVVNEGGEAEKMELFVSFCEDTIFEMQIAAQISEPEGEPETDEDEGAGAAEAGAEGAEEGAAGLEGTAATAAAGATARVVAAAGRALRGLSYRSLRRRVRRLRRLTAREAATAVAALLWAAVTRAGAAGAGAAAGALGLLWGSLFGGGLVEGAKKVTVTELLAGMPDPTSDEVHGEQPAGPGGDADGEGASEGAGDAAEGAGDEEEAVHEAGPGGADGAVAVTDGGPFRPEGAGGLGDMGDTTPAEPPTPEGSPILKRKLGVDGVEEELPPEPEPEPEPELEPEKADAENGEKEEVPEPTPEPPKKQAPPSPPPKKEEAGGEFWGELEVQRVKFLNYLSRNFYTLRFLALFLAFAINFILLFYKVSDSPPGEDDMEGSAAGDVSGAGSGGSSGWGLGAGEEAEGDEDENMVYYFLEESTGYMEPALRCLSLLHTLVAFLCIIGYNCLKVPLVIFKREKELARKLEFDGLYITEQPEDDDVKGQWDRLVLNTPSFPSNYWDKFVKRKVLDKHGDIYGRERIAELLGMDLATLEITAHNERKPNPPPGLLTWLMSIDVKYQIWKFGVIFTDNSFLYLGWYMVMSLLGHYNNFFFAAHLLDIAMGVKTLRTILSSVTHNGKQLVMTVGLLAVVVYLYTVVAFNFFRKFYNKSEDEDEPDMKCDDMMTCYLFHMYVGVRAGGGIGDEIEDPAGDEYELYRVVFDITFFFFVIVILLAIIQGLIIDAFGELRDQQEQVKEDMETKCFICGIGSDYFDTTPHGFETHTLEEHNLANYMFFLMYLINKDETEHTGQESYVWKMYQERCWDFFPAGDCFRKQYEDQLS
smiles,measurement,value
O=C1NCCc2cc(Br)c(O)c(c2)Oc2ccc(cc2Br)CCNC(=O)/C(=N\O)Cc2cc(Br)c(O)c(c2)Oc2c(Br)cc(cc2Br)C/C1=N/O,ED50,2.3 µM
